Measurements from PubChem BioAssay AID2060622 (Molecular Pharmacology Branch, DTP, NCI, 2025).
Where “and” joins values, the source holds several entries; their conditions need not be identical. Equal values may be shown once. Each block holds one molecule with its values, some of them ahead of it.

Test system: 242566-281-R-J2-PDC complex spheroid viability
Assay: Anticancer human tumor 242566-281-R-J2-PDC patient-derived pancreatic carcinoma cell line growth inhibition [CLK]
Details: for viability, T/C: stronger effect = lower value
Summary of the method: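 Multi-cell-type spheroids combined patient-derived tumor cells with HUVEC endothelial cells and human mesenchymal stem cells. Paired agents were dosed in half-log steps down from about clinical Cmax, or from 10 microM where Cmax was unknown.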

[1] = curve of first compound, second compound 0.0316 µM
[2] = curve of first compound, second compound 0.1 µM
[3] = curve of first compound, second compound 0.316 µM
[4] = curve of first compound, second compound 1 µM
[5] = curve of first compound, second compound 3.16 µM
[6] = curve of first compound, second compound 10 µM
[7] = second compound 0.0316 µM, first compound 0.0316 µM
[8] = second compound 0.0316 µM, first compound 0.1 µM
[9] = second compound 0.1 µM, first compound 0.0316 µM
[10] = second compound 0.1 µM, first compound 0.1 µM
[11] = second compound 0.316 µM, first compound 0.0316 µM
[12] = second compound 0.316 µM, first compound 0.1 µM
[13] = second compound 1 µM, first compound 0.0316 µM
[14] = second compound 1 µM, first compound 0.1 µM
[15] = second compound 3.16 µM, first compound 0.0316 µM
[16] = second compound 3.16 µM, first compound 0.1 µM
[17] = second compound 10 µM, first compound 0.0316 µM
[18] = second compound 10 µM, first compound 0.1 µM
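Also: spheroids exposed to compounds for 7 days before readout.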
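For viability, T/C in this document: 100% = DMSO vehicle control wells.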

- IC50 (curve of compound): 5960 nM and 5640 nM
SMILES: CCCS(=O)(=O)Nc1ccc(F)c(C(=O)c2c[nH]c3ncc(-c4ccc(Cl)cc4)cc23)c1F
- viability, T/C (compound 0.0316 µM): 109% and 86.7%
- viability, T/C (compound 0.1 µM): 104% and 98.7%
- viability, T/C (compound 0.316 µM): 94% and 81.7%
- viability, T/C (compound 1 µM): 106% and 86%
- viability, T/C (compound 3.16 µM): 104% and 115%
- viability, T/C (compound 10 µM): 6.44% and 6.7%

- IC50 [1]: > 100 nM
- IC50 [2]: > 100 nM
- IC50 [3]: > 100 nM
- IC50 [4]: > 100 nM
- IC50 [5]: 31.1 nM
- IC50 [6]: 2.02 nM
SMILES: Cn1ncnc1[C@H]1c2n[nH]c(=O)c3cc(F)cc(c23)N[C@@H]1c1ccc(F)cc1 + CNC(=O)c1ccc(Nc2nc(OC3CCCC3)c3c(-c4ccc5nc(C)oc5c4)c[nH]c3n2)c(OC)c1
- viability, T/C (second compound 0.0316 µM, first compound 0.000316 µM): 126%
- viability, T/C (second compound 0.0316 µM, first compound 0.001 µM): 105%
- viability, T/C (second compound 0.0316 µM, first compound 0.00316 µM): 104%
- viability, T/C (second compound 0.0316 µM, first compound 0.01 µM): 127%
- viability, T/C [7]: 91.8%
- viability, T/C [8]: 98.8%
- viability, T/C (second compound 0.1 µM, first compound 0.000316 µM): 100%
- viability, T/C (second compound 0.1 µM, first compound 0.001 µM): 123%
- viability, T/C (second compound 0.1 µM, first compound 0.00316 µM): 84.1%
- viability, T/C (second compound 0.1 µM, first compound 0.01 µM): 92.3%
- viability, T/C [9]: 98.5%
- viability, T/C [10]: 87.8%
- viability, T/C (second compound 0.316 µM, first compound 0.000316 µM): 104%
- viability, T/C (second compound 0.316 µM, first compound 0.001 µM): 86.3%
- viability, T/C (second compound 0.316 µM, first compound 0.00316 µM): 85.1%
- viability, T/C (second compound 0.316 µM, first compound 0.01 µM): 89.9%
- viability, T/C [11]: 79.9%
- viability, T/C [12]: 76.5%
- viability, T/C (second compound 1 µM, first compound 0.000316 µM): 70.9%
- viability, T/C (second compound 1 µM, first compound 0.001 µM): 67.2%
- viability, T/C (second compound 1 µM, first compound 0.00316 µM): 62.5%
- viability, T/C (second compound 1 µM, first compound 0.01 µM): 64.8%
- viability, T/C [13]: 56.1%
- viability, T/C [14]: 52.4%
- viability, T/C (second compound 3.16 µM, first compound 0.000316 µM): 55.5%
- viability, T/C (second compound 3.16 µM, first compound 0.001 µM): 52%
- viability, T/C (second compound 3.16 µM, first compound 0.00316 µM): 49.6%
- viability, T/C (second compound 3.16 µM, first compound 0.01 µM): 47.6%
- viability, T/C [15]: 56.2%
- viability, T/C [16]: 47%
- viability, T/C (second compound 10 µM, first compound 0.000316 µM): 50.2%
- viability, T/C (second compound 10 µM, first compound 0.001 µM): 53.8%
- viability, T/C (second compound 10 µM, first compound 0.00316 µM): 45.2%
- viability, T/C (second compound 10 µM, first compound 0.01 µM): 49.8%
- viability, T/C [17]: 50.3%
- viability, T/C [18]: 49.1%

- IC50 (curve of compound): < 31.6 nM and 60.1 nM
SMILES: CC(=O)O[C@H]1C(=O)[C@@]2(C)[C@H]([C@H](OC(=O)c3ccccc3)[C@]3(O)C[C@H](OC(=O)[C@H](O)[C@@H](NC(=O)c4ccccc4)c4ccccc4)C(C)=C1C3(C)C)[C@]1(OC(C)=O)CO[C@@H]1C[C@@H]2O
- viability, T/C (compound 0.0316 µM): 34.2% and 57.7%
- viability, T/C (compound 0.1 µM): 33.9% and 45%
- viability, T/C (compound 0.316 µM): 28.5% and 35.4%
- viability, T/C (compound 1 µM): 23.9% and 38.6%
- viability, T/C (compound 3.16 µM): 32.5% and 40%
- viability, T/C (compound 10 µM): 34.1% and 56.3%

SMILES: CCCS(=O)(=O)Nc1ccc(F)c(C(=O)c2c[nH]c3ncc(-c4ccc(Cl)cc4)cc23)c1F + CN1CCN(c2cc(C(=O)Nc3cc4cc(-c5cnn(C)c5)ccc4cn3)ccn2)CC1
- IC50 [1]: 5800 nM
- IC50 [2]: 5580 nM
- IC50 [3]: < 31.6 nM
- IC50 [4]: < 31.6 nM
- IC50 [5]: < 31.6 nM
- IC50 [6]: < 31.6 nM
- viability, T/C [7]: 98.8%
- viability, T/C [8]: 93.1%
- viability, T/C (second compound 0.0316 µM, first compound 0.316 µM): 96.3%
- viability, T/C (second compound 0.0316 µM, first compound 1 µM): 126%
- viability, T/C (second compound 0.0316 µM, first compound 3.16 µM): 97.3%
- viability, T/C (second compound 0.0316 µM, first compound 10 µM): 7.56%
- viability, T/C [9]: 84.8%
- viability, T/C [10]: 102%
- viability, T/C (second compound 0.1 µM, first compound 0.316 µM): 87.5%
- viability, T/C (second compound 0.1 µM, first compound 1 µM): 109%
- viability, T/C (second compound 0.1 µM, first compound 3.16 µM): 89.6%
- viability, T/C (second compound 0.1 µM, first compound 10 µM): 8.92%
- viability, T/C [11]: 42.3%
- viability, T/C [12]: 44.7%
- viability, T/C (second compound 0.316 µM, first compound 0.316 µM): 45.2%
- viability, T/C (second compound 0.316 µM, first compound 1 µM): 40.5%
- viability, T/C (second compound 0.316 µM, first compound 3.16 µM): 33.1%
- viability, T/C (second compound 0.316 µM, first compound 10 µM): 8.52%
- viability, T/C [13]: 4.91%
- viability, T/C [14]: 5.46%
- viability, T/C (second compound 1 µM, first compound 0.316 µM): 4.96%
- viability, T/C (second compound 1 µM, first compound 1 µM): 5.32%
- viability, T/C (second compound 1 µM, first compound 3.16 µM): 5.68%
- viability, T/C (second compound 1 µM, first compound 10 µM): 5.62%
- viability, T/C [15]: 7.02%
- viability, T/C [16]: 8.45%
- viability, T/C (second compound 3.16 µM, first compound 0.316 µM): 6.23%
- viability, T/C (second compound 3.16 µM, first compound 1 µM): 8.2%
- viability, T/C (second compound 3.16 µM, first compound 3.16 µM): 10.1%
- viability, T/C (second compound 3.16 µM, first compound 10 µM): 9.62%
- viability, T/C [17]: 2.81%
- viability, T/C [18]: 2.91%
- viability, T/C (second compound 10 µM, first compound 0.316 µM): 2.02%
- viability, T/C (second compound 10 µM, first compound 1 µM): 2.43%
- viability, T/C (second compound 10 µM, first compound 3.16 µM): 2.11%
- viability, T/C (second compound 10 µM, first compound 10 µM): 1.29%
